In article PMC11582573, “An evolutionarily conserved metabolite inhibits biofilm formation in Escherichia coli K-12” (Nature Communications, 2024):

Experiments:
IspG [1] = biological target: T1, IspG (Escherichia coli, UniProt P62620); assay: protein thermal shift assay; format: binding; conditions: 200 µM HMBPP, 2 µM protein, 25 mM MOPS pH 7.5, 50 mM NaCl
T1 sequence (P62620 1-372): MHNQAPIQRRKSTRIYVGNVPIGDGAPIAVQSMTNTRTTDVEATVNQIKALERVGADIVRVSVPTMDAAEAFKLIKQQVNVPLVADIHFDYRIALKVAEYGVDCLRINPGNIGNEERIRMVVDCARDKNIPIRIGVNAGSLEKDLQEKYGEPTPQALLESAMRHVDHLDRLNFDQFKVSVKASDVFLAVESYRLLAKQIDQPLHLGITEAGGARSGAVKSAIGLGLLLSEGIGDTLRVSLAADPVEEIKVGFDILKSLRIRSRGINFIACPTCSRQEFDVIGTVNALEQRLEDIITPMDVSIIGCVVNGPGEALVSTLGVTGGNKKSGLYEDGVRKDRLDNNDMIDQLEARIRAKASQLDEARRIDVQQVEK

IspG [2] = biological target: T1, IspG; assay: microscale thermophoresis; conditions: read-out: binding affinity
H-NS = biological target: T2, H-NS (Escherichia coli, UniProt P0ACF8); assay: microscale thermophoresis; conditions: read-out: binding affinity
T2 construct: gene hns
T2 sequence (P0ACF8 2-137): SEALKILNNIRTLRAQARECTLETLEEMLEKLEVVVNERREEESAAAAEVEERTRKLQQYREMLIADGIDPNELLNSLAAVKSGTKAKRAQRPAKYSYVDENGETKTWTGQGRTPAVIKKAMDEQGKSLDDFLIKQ

Q: With `C/C(=C\COP(=O)(O)OP(=O)(O)O)CO` [HMBPP] as the molecule, how does the “shift in the melting temperature” value (IspG [1]) read?
A: MEcPP and HMBPP, two known IspG binding metabolites, effectively changed the melting temperature of IspG

Q: Which Kd (IspG [2]) does the source give for `C[C@@]1(CO)OP(=O)(O)OP(=O)(O)OC[C@H]1O` [MEcPP] here?
A: 29.4 ± 10 µM

Q: And the Kd (H-NS)?
A: 6.46 ± 2.17 µM
